In publication PMC7045704 (Biochemistry, 2019) one finds Kd data, which are given here for 2 compounds.

The target of the assay is MhuD (Mycobacterium tuberculosis, UniProt P9WKH3). Put plainly: biochemical. In kind it is binding.

Where two headings read alike, the source gives them in different places.

Sequence of MhuD (P9WKH3 whole entry): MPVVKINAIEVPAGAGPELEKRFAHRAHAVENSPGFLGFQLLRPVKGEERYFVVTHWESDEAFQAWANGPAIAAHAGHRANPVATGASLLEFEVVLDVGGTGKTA

As to `C=CC1=C(C)/C(=C/c2[nH]c(/C=C3N=C(/C=C4\NC(=O)C(C)=C4C=C)C(C)=C\3CCC(=O)O)c(CCC(=O)O)c2C)NC1=O` [αBV, biliverdin IXα], the Kd (usually the equilibrium constant for the complex coming apart) (read-out: αBV Kd) turned out to be 36.4 ± 2.1 nM.

In the case of `C=CC1=C(C)C2=Cc3c(C=C)c(C)c4[n]3[Fe][n]3c(c(C)c(CCC(=O)O)c3=CC3=NC(=C4)C(C)=C3CCC(=O)O)=CC1=N2` [heme], the dissociation constant (Kd) came out at 6 ± 2.9 nM.
